Results published in ChEMBL document CHEMBL4145521, “Regioselective synthesis of 3,4-diaryl-5-unsubstituted isoxazoles, analogues of natural cytostatic combretastatin A4” (Eur J Med Chem, 2018).

How the values were obtained:
Type in all cases: functional
UO-31 = assay: Cytotoxicity against human UO31 cells assessed as cell growth at 0.1 uM incubated for 48 hrs by sulforhodamine B assay relative to control; conditions: UO-31, 48 h, read-out: Activity
SNB-75 = assay: Cytotoxicity against human SNB75 cells assessed as cell growth at 100 uM incubated for 48 hrs by sulforhodamine B assay relative to control; conditions: SNB-75, 48 h, read-out: Activity
NCI-H460 [1] = assay: Cytotoxicity against human NCI-H460 cells assessed as cell growth at 1 uM incubated for 48 hrs by sulforhodamine B assay relative to control; conditions: NCI-H460, 48 h, read-out: Activity
LOX IMVI = assay: Cytotoxicity against human LOXIMVI cells assessed as cell growth at 100 uM incubated for 48 hrs by sulforhodamine B assay relative to control; conditions: read-out: Activity
A498 = assay: Cytotoxicity against human A498 cells assessed as cell growth at 1 uM incubated for 48 hrs by sulforhodamine B assay relative to control; conditions: A498, 48 h, read-out: Activity
T47D [2] = assay: Cytotoxicity against human T47D cells assessed as cell growth at 0.01 uM incubated for 48 hrs by sulforhodamine B assay relative to control; conditions: read-out: Activity
NCI-H522 = assay: Cytotoxicity against human NCI-H522 cells assessed as cell growth at 1 uM incubated for 48 hrs by sulforhodamine B assay relative to control; conditions: NCI-H522, 48 h, read-out: Activity
NCI-H322M = assay: Cytotoxicity against human NCI-H322M cells assessed as cell growth at 1 uM incubated for 48 hrs by sulforhodamine B assay relative to control; conditions: read-out: Activity
SR = assay: Cytotoxicity against human SR cells assessed as cell growth at 100 uM incubated for 48 hrs by sulforhodamine B assay relative to control; conditions: read-out: Activity
PC-3 [3] = assay: Cytotoxicity against human PC3 cells assessed as cell growth at 100 uM incubated for 48 hrs by sulforhodamine B assay relative to control; conditions: PC-3, 48 h, read-out: Activity
PC-3 [4] = assay: Cytotoxicity against human PC3 cells assessed as cell growth at 10 uM incubated for 48 hrs by sulforhodamine B assay relative to control; conditions: PC-3, 48 h, read-out: Activity
NCI-H460 [5] = assay: Cytotoxicity against human NCI-H460 cells assessed as cell growth at 100 uM incubated for 48 hrs by sulforhodamine B assay relative to control; conditions: NCI-H460, 48 h, read-out: Activity
786-0 = assay: Cytotoxicity against human 786-0 cells assessed as cell growth at 100 uM incubated for 48 hrs by sulforhodamine B assay relative to control; conditions: 786-0, 48 h, read-out: Activity
OVCAR-5 = assay: Cytotoxicity against human OVCAR5 cells assessed as cell growth at 10 uM incubated for 48 hrs by sulforhodamine B assay relative to control; conditions: OVCAR-5, 48 h, read-out: Activity
MOLT-4 = assay: Cytotoxicity against human MOLT4 cells assessed as cell growth at 1 uM incubated for 48 hrs by sulforhodamine B assay relative to control; conditions: MOLT-4, 48 h, read-out: Activity
SF-268 = assay: Cytotoxicity against human SF268 cells incubated for 48 hrs by sulforhodamine B assay; conditions: SF-268, 48 h
SK-MEL-5 = assay: Cytotoxicity against human SK-MEL-5 cells assessed as cell growth at 1 uM incubated for 48 hrs by sulforhodamine B assay relative to control; conditions: SK-MEL-5, 48 h, read-out: Activity
CAKI-1 = assay: Cytotoxicity against human Caki1 cells assessed as cell growth at 0.1 uM incubated for 48 hrs by sulforhodamine B assay relative to control; conditions: CAKI-1, 48 h, read-out: Activity
UACC-62 = assay: Cytotoxicity against human UACC62 cells assessed as cell growth at 0.1 uM incubated for 48 hrs by sulforhodamine B assay relative to control; conditions: UACC-62, 48 h, read-out: Activity
K562 = assay: Cytotoxicity against human K562 cells assessed as cell growth at 0.1 uM incubated for 48 hrs by sulforhodamine B assay relative to control; conditions: K562, 48 h, read-out: Activity
HL-60(TB) = assay: Cytotoxicity against human HL-60(TB) cells incubated for 48 hrs by sulforhodamine B assay; conditions: HL-60, 48 h
SF-295 = assay: Cytotoxicity against human SF295 cells assessed as cell growth at 10 uM incubated for 48 hrs by sulforhodamine B assay relative to control; conditions: SF-295, 48 h, read-out: Activity
TK-10 = assay: Cytotoxicity against human TK10 cells assessed as cell growth at 1 uM incubated for 48 hrs by sulforhodamine B assay relative to control; conditions: TK-10, 48 h, read-out: Activity
MDA-MB-231 = assay: Cytotoxicity against human MDA-MB-231 cells incubated for 48 hrs by sulforhodamine B assay; conditions: MDA-MB-231, 48 h
MCF7 = assay: Cytotoxicity against human MCF7 cells assessed as cell growth at 1 uM incubated for 48 hrs by sulforhodamine B assay relative to control; conditions: MCF7, 48 h, read-out: Activity
T47D [6] = assay: Cytotoxicity against human T47D cells incubated for 48 hrs by sulforhodamine B assay
CCRF-CEM = assay: Cytotoxicity against human CCRF-CEM cells assessed as cell growth at 0.1 uM incubated for 48 hrs by sulforhodamine B assay relative to control; conditions: read-out: Activity
OVCAR-8 = assay: Cytotoxicity against human OVCAR8 cells incubated for 48 hrs by sulforhodamine B assay; conditions: OVCAR-8, 48 h
SN12C = assay: Cytotoxicity against human SN12C cells assessed as cell growth at 1 uM incubated for 48 hrs by sulforhodamine B assay relative to control; conditions: read-out: Activity
Malme-3M = assay: Cytotoxicity against human MALME-3M cells assessed as cell growth at 100 uM incubated for 48 hrs by sulforhodamine B assay relative to control; conditions: read-out: Activity
KM12 = assay: Cytotoxicity against human KM12 cells assessed as cell growth at 100 uM incubated for 48 hrs by sulforhodamine B assay relative to control; conditions: KM12, 48 h, read-out: Activity
T47D [7] = assay: Cytotoxicity against human T47D cells assessed as cell growth at 1 uM incubated for 48 hrs by sulforhodamine B assay relative to control; conditions: read-out: Activity
NCI-H460 [8] = assay: Cytotoxicity against human NCI-H460 cells assessed as cell growth at 0.01 uM incubated for 48 hrs by sulforhodamine B assay relative to control; conditions: NCI-H460, 48 h, read-out: Activity
[9] = read-out: LC50 (the source's name)
[10] = read-out: pLC50 (the source's name) (converted)

COc1ccc(-c2nocc2-c2cc(OC)c(OC)c(OC)c2)cc1
growth at 0.1 µM (UO-31): 70%
growth at 100 µM (SNB-75): 9%
growth at 1 µM (NCI-H460 [1]): 11%
growth at 100 µM (LOX IMVI): -7%
growth at 1 µM (A498): -3%
growth at 0.01 µM (T47D [2]): 81%
growth at 1 µM (NCI-H522): -39%
growth at 1 µM (NCI-H322M): 46%
growth at 100 µM (SR): -7%
growth at 100 µM (PC-3 [3]): -13%
growth at 10 µM (PC-3 [4]): 22%
growth at 100 µM (NCI-H460 [5]): -37%
growth at 100 µM (786-0): -17%
growth at 10 µM (OVCAR-5): 39%
growth at 1 µM (MOLT-4): 44%
GI50 (SF-268; read-out: GI50): 0.549 µM
LC50 (SF-268; read-out: LC50): > 100 µM
TGI (SF-268; read-out: TGI): > 100 µM
GI50 (SF-268; read-out: pGI50 (converted)): 0.55 µM
LC50 (SF-268; read-out: pLC50 (converted)): > 100 µM
TGI (SF-268; read-out: pTGI): > 100 µM
growth at 1 µM (SK-MEL-5): 29%
growth at 0.1 µM (CAKI-1): 62%
growth at 0.1 µM (UACC-62): 36%
growth at 0.1 µM (K562): 24%
GI50 (HL-60(TB); read-out: GI50): 0.0488 µM
CC50 (HL-60(TB); [9]): > 100 µM
TGI (HL-60(TB); read-out: TGI): 0.391 µM
GI50 (HL-60(TB); read-out: pGI50 (converted)): 0.049 µM
CC50 (HL-60(TB); [10]): > 100 µM
TGI (HL-60(TB); read-out: pTGI (converted)): 0.389 µM
growth at 10 µM (SF-295): 5%
growth at 1 µM (TK-10): 21%
GI50 (MDA-MB-231; read-out: GI50): 0.45 µM
CC50 (MDA-MB-231; [9]): > 100 µM
TGI (MDA-MB-231; read-out: TGI): 34.2 µM
GI50 (MDA-MB-231; read-out: pGI50 (converted)): 0.447 µM
CC50 (MDA-MB-231; [10]): > 100 µM
TGI (MDA-MB-231; read-out: pTGI (converted)): 33.9 µM
growth at 1 µM (MCF7): 19%
LC50 (T47D [6]; read-out: LC50): > 100 µM
TGI (T47D [6]; read-out: TGI): 86.3 µM
LC50 (T47D [6]; read-out: pLC50 (converted)): > 100 µM
TGI (T47D [6]; read-out: pTGI (converted)): 87.1 µM
growth at 0.1 µM (CCRF-CEM): 90%
GI50 (OVCAR-8; read-out: GI50): 0.327 µM
CC50 (OVCAR-8; [9]): > 100 µM
TGI (OVCAR-8; read-out: TGI): > 100 µM
GI50 (OVCAR-8; read-out: pGI50 (converted)): 0.324 µM
CC50 (OVCAR-8; [10]): > 100 µM
TGI (OVCAR-8; read-out: pTGI): > 100 µM
growth at 1 µM (SN12C): 47%
growth at 100 µM (Malme-3M): -31%
growth at 100 µM (KM12): -45%
growth at 1 µM (T47D [7]): 37%
growth at 0.01 µM (NCI-H460 [8]): 105%
